Laboratory results from patent US20230034660A1, “PEPTIDES THAT ENHANCE NMDA RECEPTOR FUNCTION AND USE THEREOF” (University of Pittsburgh - Of the Commonwealth System of …, priority 2019, published 2023).

Target: T1, mouse ZnT-1 (Mus musculus, UniProt Q60738)
T1 construct: host or cells: HEK293
T1 sequence (Q60738 1-503): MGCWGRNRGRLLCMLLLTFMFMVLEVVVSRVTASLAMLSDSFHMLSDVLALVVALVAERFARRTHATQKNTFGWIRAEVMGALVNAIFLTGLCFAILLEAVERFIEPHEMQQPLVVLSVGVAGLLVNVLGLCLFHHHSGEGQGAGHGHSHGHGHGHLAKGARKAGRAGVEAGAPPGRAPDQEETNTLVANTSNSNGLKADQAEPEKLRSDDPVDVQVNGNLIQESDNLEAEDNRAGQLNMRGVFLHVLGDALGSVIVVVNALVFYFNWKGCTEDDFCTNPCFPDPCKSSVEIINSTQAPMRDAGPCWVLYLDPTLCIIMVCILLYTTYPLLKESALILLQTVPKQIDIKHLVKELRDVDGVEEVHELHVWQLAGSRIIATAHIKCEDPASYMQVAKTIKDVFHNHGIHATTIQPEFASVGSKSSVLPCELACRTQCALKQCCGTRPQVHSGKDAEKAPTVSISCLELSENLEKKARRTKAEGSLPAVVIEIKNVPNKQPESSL
Experiment: Zinc efflux assay (FluoZin-3) in ZnT1-transfected HEK293 cells
Assay type: cell-based
Settings: ZnT1-expressing HEK293 cells, 3 μM overnight, N2AZ versus scN2AZ
Procedure: HEK293 cells were grown in Dulbecco's modified Eagle's medium (DMEM) containing: 100 units/ml penicillin, 0.1 mg/ml streptomycin, 2 mm glutamine, and 10% (v/v) fetal calf serum in a 5% CO2 humidified atmosphere at 37° C. To express ZnT1, HEK 293 cells were transfected with ZnT1 or empty plasmid (control) using CaPO4 precipitation. Briefly,1 μg mouse ZnT-1 (pCMV6:ZnT1 Gen Bank Q60738) or empty vector plasmid (pCMV6, Origene) was incubated with 2 M calcium chloride in HEPES buffered solution containing […] to generate a co-precipitate, this solution was then dispersed onto cultured cells for 6 hours. Twenty four hours later, cells were treated with the scN2AZ or N2AZ (3 μM ) overnight. […] Rates of initial decrease of the fluorescent signal following exposure to Zn^2+ were determined during a 100 second period. […] Fluorescence imaging measurements were acquired using Axon Imaging Workbench 5.2 (INDEC BioSystems) and analyzed using Excel and Prism GraphPad.
Next, it was examined whether N2AZ could modify ZnT1-dependent zinc transport. Following an intracellular zinc load, decreases in intracellular zinc levels were measured over time as a readout of zinc transport in HEK293 cells previously transfected with a plasmid encoding for ZnT1 or an empty vector. FluoZin-3 fluorescence was utilized to quantify intracellular zinc levels (Qin et al., 2009; Shusterman et al., 2014). […]

Sequence: NDSYLRSSL [Peptide N2AZ]
- rate of zinc efflux: not different
